Assay results: patent publication US12187742B2 (XRAD Therapeutics, Inc., priority 2018, dated 2025)
Structures can show the parent of a compound that is named as a salt.

How the values were obtained:
[1] = biological target: ATM (Homo sapiens (Human), UniProt Q13315); test: ATM in Cell Western Assay (pKAP1 in etoposide-treated MCF-7 cells); assay type: cell-based; conditions: pKAP1 in etoposide-treated MCF-7 cells
How it was run: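 Cells received compounds in a 10-dose, 3-fold series from a 1 μM final top concentration, then 100 μM etoposide, for 1 hr at 37° C. They were then fixed with paraformaldehyde and permeabilized with 0.1% Triton X-100. After immunostaining, plates were scanned on an infrared imager.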

[2] = biological target: DNA-PK (Homo sapiens (Human), UniProt P78527); test: DNA-PK Enzyme-Linked Immunosorbent Assay (phosphorylation of GST-p53 (1-101) peptide); assay type: biochemical; conditions: ELISA, 20 μM ATP
How it was run: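 ELISA with plate-bound GST-p53 (1-101) phosphorylated by DNA-PK (0.1 μg/mL final) with 20 μM ATP for 1 h at 25 °C. Compounds tested over 10 3-fold doses from 100 nM top final. Phospho-p53 Ser15 detected by antibody, HRP and TMB, absorbance at 450 nm.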

Chain of ATM (Q13315 whole entry): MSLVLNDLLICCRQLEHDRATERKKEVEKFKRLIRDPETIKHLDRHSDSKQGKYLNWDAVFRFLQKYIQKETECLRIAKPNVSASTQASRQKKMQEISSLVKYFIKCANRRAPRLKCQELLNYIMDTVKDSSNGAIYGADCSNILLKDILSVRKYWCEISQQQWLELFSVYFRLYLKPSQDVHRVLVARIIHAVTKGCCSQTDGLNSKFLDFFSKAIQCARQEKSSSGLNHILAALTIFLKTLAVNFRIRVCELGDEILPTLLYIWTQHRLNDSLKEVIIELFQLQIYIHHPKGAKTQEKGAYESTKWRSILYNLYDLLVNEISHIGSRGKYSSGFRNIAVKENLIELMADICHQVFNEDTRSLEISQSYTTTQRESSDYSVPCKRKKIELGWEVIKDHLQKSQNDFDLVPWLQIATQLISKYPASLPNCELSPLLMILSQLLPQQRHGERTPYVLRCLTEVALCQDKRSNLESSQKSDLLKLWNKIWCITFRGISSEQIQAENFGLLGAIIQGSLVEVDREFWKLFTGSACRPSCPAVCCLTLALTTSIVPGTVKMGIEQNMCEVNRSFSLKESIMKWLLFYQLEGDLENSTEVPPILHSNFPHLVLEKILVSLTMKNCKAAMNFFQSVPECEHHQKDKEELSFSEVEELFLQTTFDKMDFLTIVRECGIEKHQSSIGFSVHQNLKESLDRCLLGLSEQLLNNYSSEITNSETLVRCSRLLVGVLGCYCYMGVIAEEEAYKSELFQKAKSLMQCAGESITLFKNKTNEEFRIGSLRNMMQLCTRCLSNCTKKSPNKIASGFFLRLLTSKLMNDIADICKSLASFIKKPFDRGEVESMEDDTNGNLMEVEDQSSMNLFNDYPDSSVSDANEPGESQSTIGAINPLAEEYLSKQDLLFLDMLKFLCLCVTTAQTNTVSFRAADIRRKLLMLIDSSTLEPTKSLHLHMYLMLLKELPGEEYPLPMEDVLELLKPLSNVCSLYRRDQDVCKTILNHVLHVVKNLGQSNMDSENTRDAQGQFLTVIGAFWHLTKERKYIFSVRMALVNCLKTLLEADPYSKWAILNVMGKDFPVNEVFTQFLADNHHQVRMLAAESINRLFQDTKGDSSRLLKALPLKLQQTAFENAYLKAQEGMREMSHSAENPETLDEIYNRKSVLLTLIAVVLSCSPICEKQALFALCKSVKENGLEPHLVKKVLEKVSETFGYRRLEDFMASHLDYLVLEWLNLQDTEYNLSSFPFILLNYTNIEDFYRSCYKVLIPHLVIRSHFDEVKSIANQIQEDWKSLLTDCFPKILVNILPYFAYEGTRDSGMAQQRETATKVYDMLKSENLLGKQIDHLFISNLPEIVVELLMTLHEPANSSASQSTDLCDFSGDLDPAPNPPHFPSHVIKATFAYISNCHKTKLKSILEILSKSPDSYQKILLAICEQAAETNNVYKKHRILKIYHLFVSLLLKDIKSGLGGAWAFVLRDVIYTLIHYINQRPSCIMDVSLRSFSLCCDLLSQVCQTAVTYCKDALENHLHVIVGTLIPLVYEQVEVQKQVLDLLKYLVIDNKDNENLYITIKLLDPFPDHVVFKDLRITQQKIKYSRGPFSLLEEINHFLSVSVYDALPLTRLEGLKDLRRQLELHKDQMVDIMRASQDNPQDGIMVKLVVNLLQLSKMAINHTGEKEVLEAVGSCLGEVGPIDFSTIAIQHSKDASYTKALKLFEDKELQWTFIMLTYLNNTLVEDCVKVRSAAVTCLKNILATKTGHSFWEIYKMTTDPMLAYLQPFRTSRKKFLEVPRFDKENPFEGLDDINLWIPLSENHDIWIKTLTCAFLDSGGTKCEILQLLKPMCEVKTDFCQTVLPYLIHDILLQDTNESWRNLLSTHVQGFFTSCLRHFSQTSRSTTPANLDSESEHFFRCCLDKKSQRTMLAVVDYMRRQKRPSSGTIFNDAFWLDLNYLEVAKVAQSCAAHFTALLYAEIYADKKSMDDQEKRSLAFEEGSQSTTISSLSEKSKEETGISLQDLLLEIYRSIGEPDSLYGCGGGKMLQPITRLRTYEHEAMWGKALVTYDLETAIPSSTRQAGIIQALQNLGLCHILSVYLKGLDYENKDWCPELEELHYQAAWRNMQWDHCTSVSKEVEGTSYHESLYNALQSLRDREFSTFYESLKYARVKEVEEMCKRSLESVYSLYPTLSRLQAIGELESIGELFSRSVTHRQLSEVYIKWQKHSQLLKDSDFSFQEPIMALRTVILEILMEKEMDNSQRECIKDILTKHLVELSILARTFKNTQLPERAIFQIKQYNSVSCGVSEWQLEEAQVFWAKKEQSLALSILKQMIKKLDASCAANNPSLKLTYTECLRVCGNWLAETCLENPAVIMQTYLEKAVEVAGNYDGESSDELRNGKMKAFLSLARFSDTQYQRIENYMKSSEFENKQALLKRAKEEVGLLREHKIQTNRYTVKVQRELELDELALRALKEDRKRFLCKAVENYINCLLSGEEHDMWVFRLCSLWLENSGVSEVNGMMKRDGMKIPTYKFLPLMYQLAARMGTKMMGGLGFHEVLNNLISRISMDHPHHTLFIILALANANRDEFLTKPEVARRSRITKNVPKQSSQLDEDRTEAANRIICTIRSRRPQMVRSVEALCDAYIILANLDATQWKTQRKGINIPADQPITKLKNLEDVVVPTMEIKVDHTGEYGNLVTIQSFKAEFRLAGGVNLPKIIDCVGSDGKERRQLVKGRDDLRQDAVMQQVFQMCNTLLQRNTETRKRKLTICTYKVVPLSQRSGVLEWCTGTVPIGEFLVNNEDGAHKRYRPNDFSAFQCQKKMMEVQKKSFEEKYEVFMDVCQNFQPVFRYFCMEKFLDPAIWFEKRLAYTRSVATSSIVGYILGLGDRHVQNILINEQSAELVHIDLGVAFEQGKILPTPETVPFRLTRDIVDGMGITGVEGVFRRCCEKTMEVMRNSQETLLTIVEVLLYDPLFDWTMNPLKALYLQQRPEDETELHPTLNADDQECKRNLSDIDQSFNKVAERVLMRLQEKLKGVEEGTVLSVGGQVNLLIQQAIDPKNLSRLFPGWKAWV

IC50 [1] [nM]	IC50 [2] [nM]	SMILES
1 to 100	0.5 to 1	CCS(=O)(=O)Nc1cc(-c2cc3c4c(cnc3cc2F)N(C)C(=O)C42CN(c3ccccc3)C2)cnc1OCCNC(C)C [Example 522, N-(5-(7′-Fluoro-3′-methyl-2′-oxo-1-phenyl-2′,3′-dihydrospiro[azetidine-3,1′-pyrrolo[2,3-c]quinolin]-8′-yl)-2-(2-(isopropylamino)ethoxy)pyridin-3-yl)ethanesulfonamide hydrochloride]
1 to 100	< 0.5	CC(C)NCCOc1ncc(-c2cc3c4c(cnc3cc2F)N(C)C(=O)C42CN(c3ccc(Cl)cc3)C2)cc1NS(C)(=O)=O [Example 523, N-(5-(1-(4-Chlorophenyl)-7′-fluoro-3′-methyl-2′-oxo-2′,3′-dihydrospiro[azetidine-3,1′-pyrrolo[2,3-c]quinolin]-8′-yl)-2-(2-(isopropylamino)ethoxy)pyridin-3-yl)methanesulfonamide hydrochloride]
1 to 100	1 to 100	CC(C)NCCOc1ncc(-c2cc3c4c(cnc3cc2F)N(C)C(=O)C42CN(c3cccc(Cl)c3)C2)cc1NS(C)(=O)=O [Example 524, N-(5-(1-(3-Chlorophenyl)-7′-fluoro-3′-methyl-2′-oxo-2′,3′-dihydrospiro[azetidine-3,1′-pyrrolo[2,3-c]quinolin]-8′-yl)-2-(2-(isopropylamino)ethoxy)pyridin-3-yl)methanesulfonamide]
1 to 100	0.5 to 1	CC(C)NCCOc1ncc(-c2cc3c4c(cnc3cc2F)N(C)C(=O)C42CN(c3ccccc3Cl)C2)cc1NS(C)(=O)=O [Example 525, N-(5-(1-(2-Chlorophenyl)-7′ fluoro-3′-methyl-2′-oxo-2′,3′-dihydrospiro[azetidine-3,1′-pyrrolo[2,3-c]quinolin]-8′-yl)-2-(2-(isopropylamino)ethoxy)pyridin-3-yl)methanesulfonamide]
1 to 100	< 0.5	Cc1ccc(N2CC3(C2)C(=O)N(C)c2cnc4cc(F)c(-c5cnc(OCCNC(C)C)c(NS(C)(=O)=O)c5)cc4c23)cc1 [Example 526, N-(5-(7′-Fluoro-3′-methyl-2′-oxo-1-(p-tolyl)-2′,3′-dihydrospiro[azetidine-3,1′-pyrrolo[2,3-c]quinolin]-8′-yl)-2-(2-(isopropylamino)ethoxy)pyridin-3-yl)methanesulfonamide hydrochloride]
1 to 100	1 to 100	Cc1cccc(N2CC3(C2)C(=O)N(C)c2cnc4cc(F)c(-c5cnc(OCCNC(C)C)c(NS(C)(=O)=O)c5)cc4c23)c1 [Example 527, N-(5-(7′-Fluoro-3′-methyl-2′-oxo-1-(m-tolyl)-2′,3′-dihydrospiro[azetidine-3,1′-pyrrolo[2,3-c]quinolin]-8′-yl)-2-(2-(isopropylamino)ethoxy)pyridin-3-yl)methanesulfonamide]
1 to 100	< 0.5	Cc1ccccc1N1CC2(C1)C(=O)N(C)c1cnc3cc(F)c(-c4cnc(OCCNC(C)C)c(NS(C)(=O)=O)c4)cc3c12 [Example 528, N-(5-(7′-Fluoro-3′-methyl-2′-oxo-1-(o-tolyl)-2′,3′-dihydrospiro[azetidine-3,1′-pyrrolo[2,3-c]quinolin]-8′-yl)-2-(2-(isopropylamino)ethoxy)pyridin-3-yl)methanesulfonamide]
1 to 100	1 to 100	CCc1ccc(N2CC3(C2)C(=O)N(C)c2cnc4cc(F)c(-c5cnc(OCCNC(C)C)c(NS(C)(=O)=O)c5)cc4c23)cc1 [Example 529, N-(5-(1-(4-Ethylphenyl)-7′-fluoro-3′-methyl-2′-oxo-2′,3′-dihydrospiro[azetidine-3,1′-pyrrolo[2,3-c]quinolin]-8′-yl)-2-(2-(isopropylamino)ethoxy)pyridin-3-yl)methanesulfonamide]
1 to 100	0.5 to 1	CC(C)NCCOc1ncc(-c2cc3c4c(cnc3cc2F)N(C)C(=O)C42CN(c3ccc(C(C)C)cc3)C2)cc1NS(C)(=O)=O [Example 530, N-(5-(7′-Fluoro-1-(4-isopropylphenyl)-3 methyl-2′-oxo-2′,3′-dihydrospiro [azetidine-3,1′-pyrrolo[2,3-c]quinolin]-8′-yl)-2-(2-(isopropylamino)ethoxy)pyridin-3-yl)methanesulfonamide]
1 to 100	< 0.5	COCc1ccc(N2CC3(C2)C(=O)N(C)c2cnc4cc(F)c(-c5cnc(OCCNC(C)C)c(NS(C)(=O)=O)c5)cc4c23)cc1 [Example 532, N-(5-(7′-Fluoro-1-(4-(methoxymethyl)phenyl)-3′-methyl-2′-oxo-2′,3′-dihydrospiro[azetidine-3,1′-pyrrolo[2,3-c]quinolin]-8′-yl)-2-(2-(isopropylamino)ethoxy)pyridin-3-yl)methanesulfonamide]
1 to 100	1 to 100	COc1ccc(N2CC3(C2)C(=O)N(C)c2cnc4cc(F)c(-c5cnc(OCCNC(C)C)c(NS(C)(=O)=O)c5)cc4c23)cc1 [Example 533, N-(5-(7′-Fluoro-1-(4-methoxyphenyl)-3 methyl-2′-oxo-2′,3′-dihydrospiro [azetidine-3,1′-pyrrolo[2,3-c]quinolin]-8′-yl)-2-(2-(isopropylamino)ethoxy)pyridin-3-yl)methanesulfonamide]
1 to 100	1 to 100	COc1ccccc1N1CC2(C1)C(=O)N(C)c1cnc3cc(F)c(-c4cnc(OCCNC(C)C)c(NS(C)(=O)=O)c4)cc3c12 [Example 535, N-(5-(7′-Fluoro-1-(2-methoxyphenyl)-3′-methyl-2′-oxo-2′,3′-dihydrospiro [azetidine-3,1′-pyrrolo[2,3-c]quinolin]-8′-yl)-2-(2-(isopropylamino)ethoxy)pyridin-3-yl)methanesulfonamide]
1 to 100	1 to 100	CC(C)NCCOc1ncc(-c2cc3c4c(cnc3cc2F)N(C)C(=O)C42CN(c3ccc(C(F)(F)F)cc3)C2)cc1NS(C)(=O)=O [Example 536, N-(5-(7′-Fluoro-3′-methyl-2′-oxo-1-(4-(trifluoromethyl)phenyl)-2′,3′-dihydrospiro[azetidine-3,1′-pyrrolo[2,3-c]quinolin]-8′-yl)-2-(2-(isopropylamino)ethoxy)pyridin-3-yl)methanesulfonamide hydrochloride]
1 to 100	1 to 100	CC(C)NCCOc1ncc(-c2cc3c4c(cnc3cc2F)N(C)C(=O)C42CN(c3ccc(F)cc3)C2)cc1NS(C)(=O)=O [Example 538, N-(5-(7′-Fluoro-1-(4-fluorophenyl)-3′-methyl-2′-oxo-2′,3′-dihydrospiro [azetidine-3,1′-pyrrolo[2,3-c]quinolin]-8′-yl)-2-(2-(isopropylamino)ethoxy)pyridin-3-yl)methanesulfonamide hydrochloride]
1 to 100	< 0.5	CC(C)NCCOc1ncc(-c2cc3c4c(cnc3cc2F)N(C)C(=O)C42CN(c3cccc(F)c3)C2)cc1NS(C)(=O)=O [Example 539, N-(5-(7′-Fluoro-1-(3-fluorophenyl)-3′-methyl-2′-oxo-2′,3′-dihydrospiro[azetidine-3,1′-pyrrolo[2,3-c]quinolin]-8′-yl)-2-(2-(isopropylamino)ethoxy)pyridin-3-yl)methanesulfonamide]
1 to 100	< 0.5	CC(C)NCCOc1ncc(-c2cc3c4c(cnc3cc2F)N(C)C(=O)C42CN(c3ccccc3F)C2)cc1NS(C)(=O)=O [Example 540, N-(5-(7′-Fluoro-1-(2-fluorophenyl)-3′-methyl-2′-oxo-2′,3′-dihydrospiro [azetidine-3,1′-pyrrolo[2,3-c]quinolin]-8′-yl)-2-(2-(isopropylamino)ethoxy)pyridin-3-yl)methanesulfonamide]
1 to 100	1 to 100	CC(C)NCCOc1ncc(-c2cc3c4c(cnc3cc2F)N(C)C(=O)C42CN(c3ccc(OC(F)(F)F)cc3)C2)cc1NS(C)(=O)=O [Example 541, N-(5-(7′-Fluoro-3′-methyl-2′-oxo-1-(4-(trifluoromethoxy)phenyl)-2′,3′-dihydrospiro[azetidine-3,1′-pyrrolo[2,3-c]quinolin]-8′-yl)-2-(2-(isopropylamino)ethoxy)pyridin-3-yl)methanesulfonamide]
1 to 100	1 to 100	CC(C)NCCOc1ncc(-c2cc3c4c(cnc3cc2F)N(C)C(=O)C42CN(c3ccc(-c4ccccc4)cc3)C2)cc1NS(C)(=O)=O [Example 543, N-(5-(1-([1,1′-Biphenyl]-4-yl)-7′-fluoro-3′-methyl-2′-oxo-2′,3′-dihydrospiro[azetidine-3,1′-pyrrolo[2,3-c]quinolin]-8′-yl)-2-(2-(isopropylamino)ethoxy)pyridin-3-yl)methanesulfonamide]
1 to 100	< 0.5	CC(C)NCCOc1ncc(-c2cc3c4c(cnc3cc2F)N(C)C(=O)C42CN(c3ccc4c(c3)OCO4)C2)cc1NS(C)(=O)=O [Example 544, N-(5-(1-(Benzo[d][1,3]dioxol-5-yl)-7′-fluoro-3′-methyl-2′-oxo-2′,3′-dihydrospiro[azetidine-3,1′-pyrrolo[2,3-c]quinolin]-8′-yl)-2-(2-(isopropylamino)ethoxy)pyridin-3-yl)methanesulfonamide]
1 to 100	0.5 to 1	CC(C)NCCOc1ncc(-c2cc3c4c(cnc3cc2F)N(C)C(=O)C42CN(c3ccc4c(c3)OCCO4)C2)cc1NS(C)(=O)=O [Example 545, N-(5-(1-(2,3-Dihydrobenzo[b][1,4]dioxin-6-yl)-7′-fluoro-3′-methyl-2′-oxo-2′,3′-dihydrospiro[azetidine-3,1′-pyrrolo[2,3-c]quinolin]-8′-yl)-2-(2-(isopropylamino)ethoxy)pyridin-3-yl)methanesulfonamide]
